The values that follow come from US20260001871A1, “TRIAZOLE DERIVATIVES AS MODULATORS OF MAS-RELATED G-PROTEIN RECEPTOR D” (ESCIENT PHARMACEUTICALS, INC., priority 2022, published 2026).

Molecules are shown by their SMILES. pIC50: −log10 of the molar value.

The assay addresses human MRGPRD (Homo sapiens, UniProt Q8TDS7). Kind of assay: MRGPRD antagonist activity, IP-One HTRF assay in CHO cells stably expressing human MRGPRD (versus 100 μM β-Alanine agonist). The class given is cell-based. Summed up:
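CHO cells stably expressing human MRGPRD, plated overnight at 37 °C, were treated with antagonist plus agonist in Tris-HCl/NaCl/LiCl buffer pH 8, incubated 1 h at 37 °C then 1 h at room temperature. IP-1 accumulation read by HTRF; IC50 and percent antagonism of maximum efficacy averaged, SEM reported.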
On the technique in general: In TR-FRET formats the signal depends on donor and acceptor labels being close together.

human MRGPRD, sequence (Q8TDS7 whole entry): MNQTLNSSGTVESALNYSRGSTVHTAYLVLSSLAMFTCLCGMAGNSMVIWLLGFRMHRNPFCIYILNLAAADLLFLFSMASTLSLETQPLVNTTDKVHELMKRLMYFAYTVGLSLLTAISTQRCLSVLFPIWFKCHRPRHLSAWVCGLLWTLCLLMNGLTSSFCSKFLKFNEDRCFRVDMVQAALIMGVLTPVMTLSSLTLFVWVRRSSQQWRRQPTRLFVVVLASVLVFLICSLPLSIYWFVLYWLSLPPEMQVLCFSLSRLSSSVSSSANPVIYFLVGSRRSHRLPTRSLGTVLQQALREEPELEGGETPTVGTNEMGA

For `CC[C@H](NC(=O)c1nnn(-c2ccc(-c3ccccc3)cc2)c1C1CC1)c1ccccc1` [Compound 14-37], the pIC50 – broadly, −log10 of the IC50, conventionally taken in molar units – is 5.52 to 6.00.
`COc1cccc(-c2ccc(-n3nnc(C(=O)Nc4ccncc4)c3C3CC3)cc2)c1` [Compound 7-153] gave a pIC50 of 6.00 to 6.30.
For `CCc1ccc(-c2cccc(-n3nnc(C(=O)Nc4ccncc4)c3C3CC3)c2)cc1` [Compound 7-284] the value was 6.00 to 6.30; for `Cc1ncccc1CNC(=O)c1nnn(-c2ccc(-c3c(C)nn(-c4ccccc4)c3C)cc2)c1C1CC1` [Compound 9-4], over 7.00.
On to `Cc1nc(-c2ccc(-n3nnc(C(=O)Nc4ccncc4)c3C3CC3)cc2)sc1C` [Compound 7-115], for which the negative-log IC50 (pIC50) was 6.00 to 6.30.
`COCCn1nnc(C(=O)Nc2ccncc2)c1C1CC1` [Compound 6-4] showed a pIC50 of 5.52 to 6.00.
Molecule `Cc1ccc(CNC(=O)c2nnn(-c3ccc(-c4c(C)nn(C)c4F)cc3)c2C2CC2)cn1` [Compound 8-3] gave a pIC50 of 6.30 to 7.00.
Molecule `Cc1cc(-c2ccc(-n3nnc(C(=O)Nc4ccncc4)c3C3CC3)cc2)ccc1C#N` [Compound 7-60] gave a pIC50 of 6.30 to 7.00.
For `Cc1cc(NC(=O)c2nnn(-c3cccc(-c4ccn(C5CCCC5)n4)c3)c2C2CC2)ccn1` [Compound 7-236] the value was 6.30 to 7.00; for `COCC1(NC(=O)c2nnn(-c3ccc(-c4ccccc4)cc3)c2C2CC2)CCCC1` [Compound 14-83], under 5.52.
As to `Cc1cnc(-c2ccc(-n3nnc(C(=O)Nc4ccncc4)c3C3CC3)cc2)s1` [Compound 7-89], the pIC50 was 6.30 to 7.00.
`CC(O)c1ccc(-c2ccc(-n3nnc(C(=O)Nc4ccncc4)c3C3CC3)cc2)cc1` (stereo not drawn) [Compound 7-83]: the negative logarithm of the IC50 (pIC50) was 6.30 to 7.00.
For `O=C(Nc1ccncc1)c1nnn(-c2ccc(-c3ccc(CC4CC4)cc3)cc2)c1C1CC1` [Compound 7-149], the negative-log IC50 (pIC50) is 6.00 to 6.30.
With `CCn1nc(C)c(-c2ccc(-n3nnc(C(=O)NCc4cnn(C)c4)c3C3CC3)cc2)c1C` [Compound 9-18], the negative-log IC50 (pIC50) is 6.30 to 7.00.
As to `N#Cc1ccc(-c2ccc(-n3nnc(C(=O)Nc4ccnc(F)c4)c3C3CC3)cc2)cc1F` [Compound 9-36], the negative-log IC50 (pIC50) is 6.30 to 7.00.
The molecule `COc1cccc(C)c1NC(=O)c1nnn(-c2ccc(-c3ccccc3)cc2)c1C1CC1` [Compound 14-62] showed a pIC50 of 5.52 to 6.00.
Next, `Cc1ccc(CNC(=O)c2nnn(-c3ccc(-c4ccccc4)cc3)c2C2CC2)cn1` [Compound 14-20]: 6.00 to 6.30.
Molecule `O=C(Nc1ccncc1)c1nnn(-c2cccc(-c3ccccc3Cl)c2)c1C1CC1` [Compound 7-302] gave a negative-log IC50 (pIC50) of 5.52 to 6.00.
Consider `COc1ccc(C2(NC(=O)c3nnn(-c4ccc(-c5ccc(C#N)cc5)cc4)c3C3CC3)CC2)cn1` [Compound 17-6], for which the negative logarithm of the IC50 (pIC50) is 6.30 to 7.00.
For `COCc1ccc(-c2ccc(-n3nnc(C(=O)Nc4ccnc(C)c4)c3C3CC3)cc2)cn1` [Compound 15-21], the negative logarithm of the IC50 (pIC50) is 6.00 to 6.30.
Next, `Cc1cc(NC(=O)c2nnn(-c3ccc(-c4c(C)nn5cccnc45)cc3)c2C2CC2)ccn1` [Compound 10-3]: over 7.00; `Cc1cc(NC(=O)c2nnn(-c3cccc(-c4ccn(C)n4)c3)c2C2CC2)ccn1` [Compound 7-253]: 6.00 to 6.30.
The molecule `N#Cc1ccccc1-c1cccc(-n2nnc(C(=O)Nc3ccncc3)c2C2CC2)c1` [Compound 7-334] gave a negative logarithm of the IC50 (pIC50) of under 5.52.
`Cc1nn(C)c(C)c1-c1ccc(-n2nnc(C(=O)Nc3ccncc3)c2C2CC2)nc1` [Compound 11-1, 5-cyclopropyl-N-(pyridin-4-yl)-1-(5-(1,3,5-trimethyl-1H-pyrazol-4-yl)pyridin-2-yl)-1H-1,2,3-triazole-4-carboxamide]: the pIC50 was 6.30 to 7.00.
With `N#Cc1ccccc1-c1ccc(-n2nnc(C(=O)Nc3ccncc3)c2C2CC2)cc1` [Compound 7-180], the negative logarithm of the IC50 (pIC50) is 5.52 to 6.00.
With `CCc1ncccc1C1(NC(=O)c2nnn(-c3ccc(-c4ccc(C#N)cc4)cc3)c2C2CC2)CC1` [Compound 15-18], the negative logarithm of the IC50 (pIC50) was 5.52 to 6.00.
`Cc1nn(C)c2ccnc(NC(=O)c3nnn(-c4ccc(-c5ccccc5)cc4)c3C3CC3)c12` [Compound 14-51]: the pIC50 was 5.52 to 6.00.
Consider `Cn1nc(-c2ccccc2)cc1-c1ccc(-n2nnc(C(=O)Nc3ccncc3)c2C2CC2)cc1` [Compound 7-68], for which the pIC50 was 6.30 to 7.00.
As to `Cc1nn(C)c(C)c1-c1ccc(-n2nnc(C(=O)NC3C(C)(C)C3(C)C)c2C(C)C)cc1` [Compound 17-24], the negative-log IC50 (pIC50) is 6.30 to 7.00.
`Cn1nc(-c2ccc(-n3nnc(C(=O)Nc4ccncc4)c3C3CC3)cc2)cc1-c1ccccc1` [Compound 7-111] showed a negative logarithm of the IC50 (pIC50) of 6.30 to 7.00.
The molecule `O=C(Nc1ccncc1)c1nnn(-c2cccc(-c3ccccc3)c2)c1C1CC1` [Compound 4-11] had a negative logarithm of the IC50 (pIC50) of 5.52 to 6.00.
For `Cc1cc(NC(=O)c2nnn(C3CC=C(c4c(C)nn5ccccc45)CC3)c2C2CC2)ccn1` (stereo not drawn) [Compound 12-5] the value was 6.00 to 6.30.
Turning to `Cc1ccc(-n2nnc(C(=O)Nc3ccnc(C)c3)c2C2CC2)c(Cl)c1` [Compound 4-2, 1-(2-chloro-4-methylphenyl)-5-cyclopropyl-N-(2-methylpyridin-4-yl)-1H-1,2,3-triazole-4-carboxamide], the pIC50 was 6.30 to 7.00.
Molecule `O=C(Nc1ccncc1)c1nnn(-c2ccc(-c3cscn3)cc2)c1C1CC1` [Compound 7-176] showed a pIC50 of 5.52 to 6.00.
For `N#Cc1ccc(-c2cccc(-n3nnc(C(=O)NC4(c5cccnc5)CC4)c3C3CC3)c2)cc1` [Compound 7-9] the value was under 5.52; for `Cc1c(-c2cccc(-n3nnc(C(=O)Nc4ccncc4)c3C3CC3)c2)cnn1-c1ccccc1` [Compound 7-240], 6.30 to 7.00; for `CC(C)n1cc(-c2ccc(-n3nnc(C(=O)Nc4ccncc4)c3C3CC3)cc2)cn1` [Compound 7-175], 5.52 to 6.00.
The molecule `O=C(Nc1ccncc1)c1nnn(-c2ccc(-c3n[nH]cc3F)cc2)c1C1CC1` [Compound 7-130] had a pIC50 of 6.00 to 6.30.
Molecule `O=C(Nc1ccncc1)c1nnn(-c2ccc(-c3n[nH]c4ncccc34)cc2)c1C1CC1` [Compound 7-99] showed a pIC50 of 6.30 to 7.00.
Molecule `Cc1ccc(CNC(=O)c2nnn(-c3ccc(-c4c(C)nn5cccnc45)cc3)c2C2CC2)cn1` [Compound 10-5] showed a pIC50 of 6.30 to 7.00.
The molecule `COCc1ccc(-c2ccc(-n3nnc(C(=O)Nc4ccncc4)c3C3CC3)cc2)cc1` [Compound 7-46] showed a pIC50 of 6.30 to 7.00.
`Cc1cncc(CNC(=O)c2nnn(-c3ccc(-c4c(C)nn(-c5ccccc5)c4C)cc3)c2C2CC2)c1` [Compound 9-12] had a pIC50 of 6.30 to 7.00.
Molecule `COc1ccc(-c2cccc(-n3nnc(C(=O)Nc4ccncc4)c3C3CC3)c2)c(OC)c1` [Compound 7-286] gave a negative logarithm of the IC50 (pIC50) of 5.52 to 6.00.
`CCc1cccc(-c2ccc(-n3nnc(C(=O)Nc4ccncc4)c3C3CC3)cc2)c1` [Compound 7-91]: the negative logarithm of the IC50 (pIC50) was 6.30 to 7.00.
`CC(=O)c1ccc(-c2cccc(-n3nnc(C(=O)Nc4ccncc4)c3C3CC3)c2)c(F)c1C` [Compound 7-252] showed a pIC50 of 6.00 to 6.30.
For `CO[C@H]1CC[C@H](NC(=O)c2nnn(-c3ccc(-c4ccccc4)cc3)c2C2CC2)CC1` [Compound 14-40], the negative-log IC50 (pIC50) is 5.52 to 6.00.
For `CCn1cc(CNC(=O)c2nnn(-c3ccc(-c4ccc(C#N)c(F)c4)cc3)c2C2CC2)cn1` [Compound 16-4], the negative logarithm of the IC50 (pIC50) was 6.30 to 7.00.
For the molecule `Cc1ccc(-n2nnc(C(=O)Nc3ccncc3)c2C2CCC2)cc1` [Compound 3-5], the negative-log IC50 (pIC50) is 6.00 to 6.30.
